Results on 8 compounds are retold here after patent US20230278996A1, “YKL-40 INHIBITORS AND THEIR THERAPEUTIC APPLICATIONS” (Molecure S.A., priority 2022, published 2023).

In experiment [1] the target is T1, YKL-40 (Homo sapiens (Human), UniProt P36222). In words: Bio-layer interferometry (BLITz) Kd of biotinylated compounds. The format is binding. The note with it: symbol preceded by asterisk; biotinylated compound on streptavidin biosensor; read-out: YKL-40:4, Kd. How it is done: BLITz system (Sartorius) that used Bio-layer interferometry technology was applied to assess Kd of biotinylated compounds. […] During dehydration process the 10 mM stock of biotinylated compound in DMSO was diluted in MST buffer to final concentration of 0.5 μM. In addition, protein stock of recombinant YKL40 (un-tagged, purified in-house) was also prepared in MST buffer at two concentrations: 200 μM and 400 μM. The dehydrated biosensor was applied on the BLITz system that was followed by 5-step procedure: 1) initial baseline for 30 s with MST buffer in tube, 2) loading of 4 μl of biotinylated compound on drop, 3) baseline for 30 s with MST buffer in tube, 4) association of 4 μl of protein stock at one concentration or MST buffer (negative control), 5) dissociation with MST buffer in tube. The same multi-step measurement was done twice for each protein stock concentration and once for negative control. Kd was measured by the BLITz software based on global fitting using the negative control as a reference.
T1 sequence (P36222 22-383): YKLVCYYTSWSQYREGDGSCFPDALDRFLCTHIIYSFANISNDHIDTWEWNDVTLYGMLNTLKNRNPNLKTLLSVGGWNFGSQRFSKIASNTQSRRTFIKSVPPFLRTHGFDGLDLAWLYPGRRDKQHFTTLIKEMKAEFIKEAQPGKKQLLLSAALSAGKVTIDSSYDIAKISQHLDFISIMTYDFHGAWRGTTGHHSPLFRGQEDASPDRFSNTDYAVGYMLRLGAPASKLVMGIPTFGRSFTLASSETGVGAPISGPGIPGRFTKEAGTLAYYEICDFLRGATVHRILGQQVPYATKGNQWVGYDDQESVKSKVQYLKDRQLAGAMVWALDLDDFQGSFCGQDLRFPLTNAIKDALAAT
(Biolayer interferometry detects binding as a change in optical thickness at a sensor tip.)

In experiment [2] the target is YKL-40: heparan sulfate interaction (Homo sapiens (Human), UniProt P36222). As to the kind of experiment: YKL-40:HS assay, heparan sulfate interference AlphaScreen. It is filed as binding. The note with it: competition with biotinylated heparan sulphate (60 nM). Background: Alpha assays give light when donor and acceptor beads are brought close together.
YKL-40: heparan sulfate interaction, sequence (P36222 22-383): as above
Procedure: In the similar way to establishing YKL-40 chitin binding site competitive AlphaScreen assay (section 3), the YKL-40 AlphaScreen assay using biotinylated 9 kDa heparan sulfate fraction III was established, including the same buffer conditions (50 mM Tris HCl pH 7.4, 150 mM NaCl, 10 mM MgCl2, 0.05% Tween 20, 1 mg/mL BSA 1% DMSO). […] Next, biotinylated heparan sulfate fraction III custom-ordered from Iduron was cross-titrated with histagged YKL-40 using AlphaScreen assay described above.
Positive and negative control wells received just 8 uL of MST buffer containing 2% DMSO without inhibitor in the 2nd step (ii). In addition, negative control received just 8 uL of MST buffer containing 0% DMSO without YKL-40-histag in the 3nd step (iii). Finally, the plate luminescence was excited at 680 nm and the emission read at 520-620 nm using the AlphaScreen module in the The Spark™ 10 M multimode microplate reader (Tecan Trading AG, Männedorf, Switzerland). Inhibition percentage and IC50 values were determined using GraphPad Prism 7.0 software (GraphPad Software, San Diego, Calif., USA).
In experiment [3] the target is T1, YKL-40. In words: YKL-40:4 assay, competitive chitin binding site AlphaScreen. As to conditions: competition with biotinylated compound 4 (20 nM), YKL-40-histag 2.5 nM.

pIC50, pKd: −log10 of the molar value. Counter-ions that a name gives are not always drawn. Some results are limits rather than exact numbers.

With `O=C(CCCC[C@@H]1SC[C@@H]2NC(=O)N[C@@H]21)NCCOCCOCCOCCOCCOCCOCCOCCOCCOCCOCCOCCOCCC(=O)NC[C@H]1CN(C2CCN(c3ccccn3)CC2)[C@@H](Cc2ccc(Cl)cc2)CO1` [Example 5, N-(((2S,5S)-5-(4-chlorobenzyl)-4-(1-(pyridin-2-yl)piperidin-4-yl)morpholin-2-yl)methyl)-1-(5-((3aS,4S,6aR)-2-oxohexahydro-1H-thieno[3,4-d]imidazol-4-yl)pentanamido)-3,6,9,12,15,18,21,24,27,30,33,36-dodecaoxanonatriacontan-39-amide], the pKd in experiment [1] is more than 7.00. Turning to `CN1C[C@H](Cc2ccc(Cl)cc2)N(C2CCN(c3ccccn3)CC2)C[C@@H]1Cc1ccc(Cl)cc1` [compound 63, (2S,5S)-2,5-bis(4-chlorobenzyl)-1-methyl-4-(1-(pyridin-2-yl)piperidin-4-yl)piperazine 2,2,2-trifluoroacetate], the values for the pIC50 in experiment [2] and in experiment [3] were 6.00 to 7.00 and 5.00 to 6.00, respectively. Consider `CN1C[C@H](Cc2ccc(Cl)cc2)N(C2CCN(c3cc(Cl)ccn3)CC2)C[C@@H]1Cn1ccnc1` [compound 82, (2R,5S)-2-((1H-imidazol-1-yl)methyl)-5-(4-chlorobenzyl)-4-(1-(4-chloropyridin-2-yl)piperidin-4-yl)-1-methylpiperazine hydrochloride], for which the negative-log IC50 (pIC50) in experiment [2] and in experiment [3] was more than 7.00 in each case. Take `CNC(=O)CN1C[C@H](Cc2ccc(Cl)cc2)N(C2CCN(c3ccccn3)CC2)C[C@@H]1CC(C)C` [compound 95, 2-((2S,5S)-5-(4-chlorobenzyl)-2-isobutyl-4-(1-(pyridin-2-yl)piperidin-4-yl)piperazin-1-yl)-N-methylacetamide 2,2,2-trifluoroacetate]: the negative-log IC50 (pIC50) in experiment [2] and in experiment [3] was more than 7.00 in each case. With `CNC(=O)CN1C[C@H](Cc2ccc(Cl)cc2)N(C2CCN(c3ccccn3)CC2)C[C@@H]1C(C)C` [compound 106, 2-((2S,5S)-5-(4-chlorobenzyl)-2-isopropyl-4-(1-(pyridin-2-yl)piperidin-4-yl)piperazin-1-yl)-N-methylacetamide 2,2,2-trifluoroacetate], the negative-log IC50 (pIC50) in experiment [2] and in experiment [3] was more than 7.00 throughout. For `Cc1ccnc(N2CCC(N3C[C@H](C)OC[C@@H]3Cc3ccc(Cl)cc3)CC2)c1F` [compound 112, (2S,5S)-5-(4-chlorobenzyl)-4-(1-(3-fluoro-4-methylpyridin-2-yl)piperidin-4-yl)-2-methylmorpholine 2,2,2-trifluoroacetate], the negative logarithm of the IC50 (pIC50) in experiment [2] is more than 7.00; in experiment [3], 6.00 to 7.00. Regarding `Cc1nc(N2CCC(N3C[C@H](C)OC[C@@H]3Cc3ccc(Cl)cc3)CC2)sc1C` [compound 183, (2S,5S)-5-(4-chlorobenzyl)-4-(1-(4,5-dimethylthiazol-2-yl)piperidin-4-yl)-2-methylmorpholine 2,2,2-trifluoroacetate], the pIC50 in experiment [2] and in experiment [3] was more than 7.00 throughout. On to `Cc1cnc(N2CCC(N3C[C@H](C)OC[C@@H]3Cc3ccc(Cl)cc3)CC2)s1` [compound 185, (2S,5S)-5-(4-chlorobenzyl)-2-methyl-4-(1-(5-methylthiazol-2-yl)piperidin-4-yl)morpholine 2,2,2-trifluoroacetate], for which the figures for the negative-log IC50 (pIC50) in experiment [2] and in experiment [3] were 6.00 to 7.00 and more than 7.00, respectively.

As a reminder, the pKd is the negative decadic logarithm of the Kd, by convention in mol/L. The term pIC50 denotes the IC50 on a negative log10 scale, so that one unit is a factor of ten.
